We go through four compounds from ChEMBL document CHEMBL1130674, “N-arylrolipram derivatives as potent and selective PDE4 inhibitors” (1998).

Assay [1] concerns the target 3',5'-cyclic-AMP phosphodiesterase 4A (Homo sapiens) (UniProt P27815).
Description: Inhibition of phosphodiesterase (PDE) 4A
The target in assay [2] is Phosphodiesterase 3 (Homo sapiens) (UniProt Q14432+Q13370). Briefly: Inhibition of phosphodiesterase (PDE) 3. Format: protein assay.
Another assay is filed under the species Homo sapiens. Briefly: Inhibition of fMLP induced oxidative burst in human eosinophils. The class given is functional.
Assay [3] deals with PBMC. Briefly: Inhibition of LPS induced TNF-alpha release by human peripheral blood mononuclear cells. The class given is functional.
The subject of assay [4] is PBMC. Briefly: Inhibition of anti-CD3 induced T-cell proliferation in human peripheral blood mononuclear cells. Format: functional.
The subject of assay [5] is Rattus norvegicus. Briefly: Eosinophil accumulation in sensitized brown norway rats at 3.2 mg/kg dose (No of rats = 5). The class given is functional.
Assay [6] has as its target 3',5'-cyclic-AMP phosphodiesterase 4D (Homo sapiens) (UniProt Q08499). Briefly: Inhibition of phosphodiesterase (PDE) 4D.
Assay [7] concerns PBMC. Briefly: Inhibition of anti-CD3 induced IL-4 release by human peripheral blood mononuclear cells. The class given is functional.
For assay [8], the target named is T1, 3',5'-cyclic-AMP phosphodiesterase 4B (Rattus norvegicus) (UniProt P14646).
T1 sequence (whole entry): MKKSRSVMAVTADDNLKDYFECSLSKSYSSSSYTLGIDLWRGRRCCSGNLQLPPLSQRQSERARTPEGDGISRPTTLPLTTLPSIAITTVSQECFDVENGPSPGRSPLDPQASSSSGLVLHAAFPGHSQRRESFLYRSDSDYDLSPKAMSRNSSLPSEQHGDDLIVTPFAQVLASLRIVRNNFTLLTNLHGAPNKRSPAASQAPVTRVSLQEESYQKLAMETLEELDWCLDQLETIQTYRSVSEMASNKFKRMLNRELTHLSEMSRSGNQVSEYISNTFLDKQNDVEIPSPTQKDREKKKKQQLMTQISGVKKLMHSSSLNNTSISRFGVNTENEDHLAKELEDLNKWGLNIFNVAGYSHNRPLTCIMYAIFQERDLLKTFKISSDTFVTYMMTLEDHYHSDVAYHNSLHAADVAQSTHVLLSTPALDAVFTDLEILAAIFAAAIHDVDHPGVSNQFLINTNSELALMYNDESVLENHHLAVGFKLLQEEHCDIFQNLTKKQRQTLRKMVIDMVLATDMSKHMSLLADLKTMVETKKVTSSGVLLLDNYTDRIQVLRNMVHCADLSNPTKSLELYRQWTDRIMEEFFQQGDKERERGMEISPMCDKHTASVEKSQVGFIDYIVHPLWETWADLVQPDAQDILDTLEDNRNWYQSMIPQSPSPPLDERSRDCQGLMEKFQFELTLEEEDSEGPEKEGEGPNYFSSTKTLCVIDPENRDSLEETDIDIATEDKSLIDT
Briefly: Inhibition of phosphodiesterase (PDE) 4B.

Assay [9] concerns PBMC. Briefly: Inhibition of anti-CD3 induced IFN-gamma-release in human peripheral blood mononuclear cells. The class given is functional.
Assay [10] is described as follows: Inhibition of rolipram binding.
The test system of assay [11] is Rattus norvegicus. Briefly: Eosinophil accumulation in sensitized brown norway rats at 1 mg/kg dose (No of rats = 5). Format: functional.

Chain of 3',5'-cyclic-AMP phosphodiesterase 4A (Homo sapiens) (P27815 whole entry): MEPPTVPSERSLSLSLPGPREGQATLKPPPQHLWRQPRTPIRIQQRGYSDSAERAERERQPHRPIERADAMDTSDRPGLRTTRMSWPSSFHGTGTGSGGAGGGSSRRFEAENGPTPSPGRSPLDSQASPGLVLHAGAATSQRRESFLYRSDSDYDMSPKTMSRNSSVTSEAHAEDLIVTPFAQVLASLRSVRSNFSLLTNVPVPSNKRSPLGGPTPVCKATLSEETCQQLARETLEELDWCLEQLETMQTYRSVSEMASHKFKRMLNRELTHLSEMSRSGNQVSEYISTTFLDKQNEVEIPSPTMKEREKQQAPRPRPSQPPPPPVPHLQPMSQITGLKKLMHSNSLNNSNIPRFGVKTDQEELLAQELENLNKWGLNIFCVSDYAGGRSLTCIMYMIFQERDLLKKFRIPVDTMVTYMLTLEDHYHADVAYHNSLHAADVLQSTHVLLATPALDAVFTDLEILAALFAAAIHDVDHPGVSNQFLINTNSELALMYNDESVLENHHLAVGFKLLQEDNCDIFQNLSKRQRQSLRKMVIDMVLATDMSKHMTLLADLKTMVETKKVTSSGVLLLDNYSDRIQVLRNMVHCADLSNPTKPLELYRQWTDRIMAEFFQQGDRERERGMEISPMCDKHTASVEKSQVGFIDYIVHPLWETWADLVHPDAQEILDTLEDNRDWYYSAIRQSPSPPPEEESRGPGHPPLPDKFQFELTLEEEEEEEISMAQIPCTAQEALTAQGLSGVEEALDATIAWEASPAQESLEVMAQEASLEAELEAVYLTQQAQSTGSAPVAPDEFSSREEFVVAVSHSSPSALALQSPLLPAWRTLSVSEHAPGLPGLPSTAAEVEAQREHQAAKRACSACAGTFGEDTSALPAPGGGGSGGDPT
Chain of 3',5'-cyclic-AMP phosphodiesterase 4D (Homo sapiens) (Q08499 whole entry): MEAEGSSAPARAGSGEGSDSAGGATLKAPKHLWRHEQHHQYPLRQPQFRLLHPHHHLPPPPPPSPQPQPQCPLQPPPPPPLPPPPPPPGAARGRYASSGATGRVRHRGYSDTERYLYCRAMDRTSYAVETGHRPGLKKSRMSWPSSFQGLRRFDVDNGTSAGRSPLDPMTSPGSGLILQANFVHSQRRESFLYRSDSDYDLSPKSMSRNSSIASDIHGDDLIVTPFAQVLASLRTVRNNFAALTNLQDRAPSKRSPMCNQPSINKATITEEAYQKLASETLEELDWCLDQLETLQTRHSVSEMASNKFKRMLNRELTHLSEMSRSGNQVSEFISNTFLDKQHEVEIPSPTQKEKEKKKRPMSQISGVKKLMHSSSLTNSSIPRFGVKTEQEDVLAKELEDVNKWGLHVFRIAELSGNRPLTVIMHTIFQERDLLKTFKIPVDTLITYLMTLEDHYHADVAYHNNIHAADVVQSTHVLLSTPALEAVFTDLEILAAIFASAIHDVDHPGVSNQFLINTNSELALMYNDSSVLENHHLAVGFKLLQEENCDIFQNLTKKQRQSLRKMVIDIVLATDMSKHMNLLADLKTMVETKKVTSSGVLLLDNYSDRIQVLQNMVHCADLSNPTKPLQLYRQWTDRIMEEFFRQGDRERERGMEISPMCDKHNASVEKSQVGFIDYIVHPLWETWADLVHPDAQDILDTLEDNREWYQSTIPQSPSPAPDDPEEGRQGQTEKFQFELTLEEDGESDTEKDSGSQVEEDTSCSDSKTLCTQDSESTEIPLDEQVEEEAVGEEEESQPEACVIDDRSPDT

In the case of `COc1cccc(COc2cc(C(=O)O)cc(N3CC(c4ccc(OC)c(OC5CCCC5)c4)CC3=O)c2)c1` (stereo unspecified), the negative-log IC50 (pIC50) in assay [1] is 7.9; in [2], below 4; in the assay listed under Homo sapiens, 6.6; in the assay with PBMC [3], 7.4; with PBMC [4] it was 7.2; in [6], 7.9. The pIC50 was determined as 6.6 in the assay with PBMC [7], 7.7 in assay [8], 7.5 in the assay with PBMC [9] and 7.5 in [10]. The Activation in the assay with Rattus norvegicus [5] came out at 5 mU ml-1.
`COc1ccc(C2CNC(=O)C2)cc1OC1CCCC1` (stereo unspecified) [ROLIPRAM]: the negative-log IC50 (pIC50) came to 6.1 in the assay filed under Homo sapiens, 7.1 with PBMC [3], 6.3 with PBMC [7] and 5.6 in the assay with PBMC [9].
`COc1cccc(COc2cc(C(=O)NN(C)C)cc(N3CC(c4ccc(OC)c(OC5CCCC5)c4)CC3=O)c2)c1` (stereo unspecified): the pIC50 in [1] was 8.6; in assay [2], below 4; in the assay listed under Homo sapiens, 7.3; in the assay on PBMC [3] it was 7.7; with PBMC [4] it was 7.3; in [6] it was 8.8. The pIC50 in the assay on PBMC [7] is 7.6; in [8], 8.3; in the assay with PBMC [9] it was 7.8; in [10], 8.3. Also, the Activation with Rattus norvegicus [11] turned out to be 10 mU ml-1.
`COc1cccc(COc2cccc(N3CC(c4ccc(OC)c(OC5CCCC5)c4)CC3=O)c2)c1` (stereo unspecified): the negative-log IC50 (pIC50) is 8.2 in [1]; below 4 in assay [2]; 8.1 in [6]; 8.6 in assay [8]; 8.1 in assay [10].
